Measured values published in patent publication EP0795549A1, “Bis-aryloxy(amino)-triazinyl-oxy(amino)aryl derivatives, their preparation and their use as antiviral agents” (American Cyanamid Company, priority 1996, dated 1997).
Like-named read-outs stand apart in the source and are kept apart here.

Experiments:
RSV A2 = type: in vivo, cotton rats; conditions: for inhibition of RSV in vivo (summary in words): cotton rats, summary of Table 3
HSV1 (Patton) [1] = assay: viral plaque reduction assay, HSV1; type: cell-based, Herpes Simplex Virus; conditions: for IC50µG/mL IN PLAQUE ASSAY HSV/ VER O: HSV1 (Patton), vero host cells
CMV (Ad169) [2] = assay: viral plaque reduction assay, CMV; type: cell-based, Cytomegalovirus; conditions: for IC50µG/mL IN PLAQUE ASSAY CMV/ HF: CMV (Ad169), HF host cells; for IC50 (µG/ml) viral plaque formation: HCMV Ad169, HF, Pre
RSV (A2) = assay: viral yield reduction (growth inhibition) assay, RSV; type: cell-based, Respiratory Syncitial Virus; conditions: for IC50 µG/mL IN GROWTH […]/ HF: HF host cells; for IC50 µG/mL IN GROWTH […]/ VERO: vero host cells
Method: (§1) The compounds were tested for biological activity using viral yield reduction assays. Host cells (indicated as HF for human foreskin fibroblasts and as vero, the commonly used African green monkey cell line, in Tables 1 and 1a) were plated at 4 x 10^4 cells/well in cell growth medium with 2% fetal bovine serum or 2% calf serum in 96-well plates (0.1 ml/well) and incubated overnight. The compounds were added to individual wells to give final concentrations ranging from 50 to 0.1 µg/ml in two-fold concentration steps. After 1 hour, virus was added, and the incubation was continued for 4 days with RSV or CMV and for 2 days with HSV. At the end of the experiment, the amount of virus growth was quantitated and the yield reduction at various concentrations of compound was calculated. This allows estimation of the concentration of compound giving 50% reduction in virus growth (IC50).

CMV (Ad169) [3] = assay: viral yield reduction (growth inhibition) assay, CMV; type: cell-based, Cytomegalovirus; conditions: HF host cells
Method: as §1

RSV [4] = assay: viral plaque reduction assay, RSV; type: cell-based, Respiratory Syncitial Virus; conditions: for IC50µG/mL IN PLAQUE ASSAY RSV/ VERO: RSV (A2), vero host cells
HSV1 (Patton) [5] = assay: viral yield reduction (growth inhibition) assay, HSV; type: cell-based, Herpes Simplex Virus; conditions: HSV1 (Patton)
Method: as §1

FLU = assay: viral plaque reduction assay, influenza; type: cell-based; conditions: Pre
HSV2 = assay: viral plaque reduction assay, HSV2; type: cell-based, herpes simplex virus; conditions: Pre
HPIV3 = assay: viral plaque reduction assay, HPIV3; type: cell-based, human parainfluenza virus type 3, strain Washington; conditions: HPIV3 WASH., VERO, Pre
RSV [6] = assay: time of addition: effect on viral protein synthesis in infected Vero cells; type: cell-based
Method: The time in the virus life-cycle when Example 1 exerts its effect was determined to increase understanding of the mechanism of action. This was accomplished by adding and removing the compound at various times relative to infection and assessing the effect on viral protein synthesis. Vero cells were infected on ice for 1 hour, unadsorbed virus was removed, and then the infected cells were incubated at 37°C for 18 hours (virus adsorption will occur on ice, but fusion will not proceed until the temperature is raised to 18°C or above). After the 18 hour incubation at 37°C (when the bulk of ongoing protein synthesis was directed by viral RNAs), ^35S-methionine was added for 2 hours, the cells were lysed, and the labeled proteins were analyzed on SDS-PAGE gels. The viral N, P, and M proteins were then evident. […] However, when the compound of Example 1 was added even after only 5 minutes incubation at 37°C, viral protein production was unimpeded. Therefore, the process inhibited was the fusion process or some closely succeeding step which is required for later viral gene expression.

[7] = EXPT 3, i.n. 30 mg/k d1,2,3, Lavage/CPE
[8] = EXPT 3, i.n. 30 mg/k d1,2,3, Lavage/Plaque
[9] = EXPT 3, i.n. 30 mg/k d1,2,3, Lung/Plaque
[10] = EXPT 3, i.n. d0 15 mg/k, d1 30 mg/k, Lavage/CPE
[11] = EXPT 3, i.n. d0 15 mg/k, d1 30 mg/k, Lavage/Plaque
[12] = EXPT 3, i.n. d0 15 mg/k, d1 30 mg/k, Lung/Plaque
[13] = EXPT 3, i.n. d0 15 mg/k, d1,2,3 30 mg/k, Lavage/CPE
[14] = EXPT 3, i.n. d0 15 mg/k, d1,2,3 30 mg/k, Lavage/Plaque
[15] = EXPT 3, i.n. d0 15 mg/k, d1,2,3 30 mg/k, Lung/Plaque
[16] = EXPT 3, i.p. 30 mg/k d1,2,3, Lavage/CPE
[17] = EXPT 3, i.p. 30 mg/k d1,2,3, Lavage/Plaque
[18] = EXPT 3, i.p. 30 mg/k d1,2,3, Lung/Plaque
[19] = RSV A2, VERO, Pre (pretreatment)

Substance: 4,4'-Bis[4,6-di[3-aminophenyl-N,N-bis(2-carbamoyl-ethyl)sulfonylimino]-1,3,5-triazin-2-ylamino]-biphenyl-2,2'-disulfonic acid, disodium salt [Example 4]
- Fold red. log10 (RSV A2; [7]): 2.51 log10
- Mean titer log10/g lung (RSV A2; [7]): 1.67 log10/g lung
- Fold red. log10 (RSV A2; [8]): 1.2 log10
- Mean titer log10/g lung (RSV A2; [8]): 3.09 log10/g lung
- Fold red. log10 (RSV A2; [9]): 1.18 log10
- Mean titer log10/g lung (RSV A2; [9]): 3.37 log10/g lung
- Fold red. log10 (RSV A2; [10]): 2.52 log10
- Mean titer log10/g lung (RSV A2; [10]): 1.66 log10/g lung
- Fold red. log10 (RSV A2; [11]): 2.03 log10
- Mean titer log10/g lung (RSV A2; [11]): 2.26 log10/g lung
- Fold red. log10 (RSV A2; [12]): 2.23 log10
- Mean titer log10/g lung (RSV A2; [12]): 2.32 log10/g lung
- Fold red. log10 (RSV A2; [13]): 2.13 log10
- Mean titer log10/g lung (RSV A2; [13]): 2.05 log10/g lung
- Fold red. log10 (RSV A2; [14]): 2.04 log10
- Mean titer log10/g lung (RSV A2; [14]): 2.25 log10/g lung
- Fold red. log10 (RSV A2; [15]): 2.3 log10
- Mean titer log10/g lung (RSV A2; [15]): 2.25 log10/g lung
- Fold red. log10 (RSV A2; [16]): 0 log10
- Mean titer log10/g lung (RSV A2; [16]): 4.18 log10/g lung
- Fold red. log10 (RSV A2; [17]): 0.09 log10
- Mean titer log10/g lung (RSV A2; [17]): 4.1 log10/g lung
- Fold red. log10 (RSV A2; [18]): 0.26 log10
- Mean titer log10/g lung (RSV A2; [18]): 3.92 log10/g lung
- inhibition of RSV in vivo (summary in words) (RSV A2): inhibit RSV in vivo
- Fold red. log10 (RSV A2; rat, in vivo): 1.63 log10
- Mean titer log10/g lung (RSV A2; rat, in vivo): 2.05 log10/g lung
- IC50µG/mL IN PLAQUE ASSAY HSV/ VER O (HSV1 (Patton) [1]): 35 µg/mL
- IC50 (µG/ml) viral plaque formation (HSV1 (Patton) [1]; HSV1 Patton, VERO, Pre): 35 µg/mL
- IC50µG/mL IN PLAQUE ASSAY CMV/ HF (CMV (Ad169) [2]): > 30 µg/mL
- IC50 (µG/ml) viral plaque formation (CMV (Ad169) [2]): >30 µg/mL
- IC50 µG/mL IN GROWTH […]/ HF (RSV (A2)): 0.1 µg/mL
- IC50 µG/mL IN GROWTH […]/ VERO (RSV (A2)): 0.1 µg/mL
- IC50 µG/mL IN GROWTH […]/ HF (CMV (Ad169) [3]): 35 µg/mL
- IC50 (µG/ml) viral plaque formation (RSV [4]; RSV 2B, VERO, Post 2 hours): 0.08 µg/mL
- IC50 (µG/ml) viral plaque formation (RSV [4]; RSV 3A, VERO, Post 2 hours): 0.15 µg/mL
- IC50 (µG/ml) viral plaque formation (RSV [4]; RSV 9320, VERO, Post 2 hours): 0.18 µg/mL
- IC50 (µG/ml) viral plaque formation (RSV [4]; RSV 18736, VERO, Post 2 hours): 0.06 µg/mL
- IC50µG/mL IN PLAQUE ASSAY RSV/ VERO (RSV [4]): 0.1 µg/mL
- IC50 (µG/ml) viral plaque formation (RSV [4]; RSV A2, VERO, Post 2 hours): 0.28 µg/mL
- IC50 (µG/ml) viral plaque formation (RSV [4]; [19]): 0.1 µg/mL
- IC50 (µG/ml) viral plaque formation (RSV [4]; RSV LONG, VERO, Post 2 hours): 0.21 µg/mL
- IC50 (µG/ml) viral plaque formation (RSV [4]; RSV RSS2, VERO, Post 2 hours): 0.20 µg/mL
- active against all RSV strains tested (plaque assays) (RSV [4]): 0.1 to 0.7 µg/mL
- IC50 µG/mL IN GROWTH […]/ HF (HSV1 (Patton) [5]; HF host cells): 20 µg/mL
- IC50 µG/mL IN GROWTH […]/ VERO (HSV1 (Patton) [5]; vero host cells): 35 µg/mL

Substance: 4,4'-Bis[4,6-di[3-aminophenyl-N,N-bis(2-carbamoyl-ethyl)sulfonylimino]-1,3,5-triazin-2-ylamino]-stilbene-2,2'-disulfonic acid, disodium salt [Example 1]
- IC50 (µG/ml) viral plaque formation (FLU; FLU A1/FM/1/47, MDCK): >50 µg/mL
- IC50 (µG/ml) viral plaque formation (FLU; FLU A2/HK/8/68, MDCK): >50 µg/mL
- IC50 (µG/ml) viral plaque formation (FLU; FLU A2/JPN/305/57, MDCK): >50 µg/mL
- IC50 (µG/ml) viral plaque formation (FLU; FLU A/Beij/32/92, MDCK): >20 µg/mL
- IC50 (µG/ml) viral plaque formation (FLU; FLU A/Texas/36/91, MDCK): 5 µg/mL
- IC50 (µG/ml) viral plaque formation (FLU; FLU B/Pana/45/90, MDCK): >20 µg/mL
- inhibition of RSV in vivo (summary in words) (RSV A2): inhibit RSV in vivo
- IC50µG/mL IN PLAQUE ASSAY HSV/ VER O (HSV1 (Patton) [1]): 8 µg/mL
- IC50µG/mL IN PLAQUE ASSAY CMV/ HF (CMV (Ad169) [2]): 7 µg/mL
- IC50 (µG/ml) viral plaque formation (CMV (Ad169) [2]): 15 µg/mL
- IC50 µG/mL IN GROWTH […]/ HF (RSV (A2)): 0.3 µg/mL
- IC50 µG/mL IN GROWTH […]/ VERO (RSV (A2)): 0.5 µg/mL
- IC50 (µG/ml) viral plaque formation (HSV2; HSV2 12, VERO): >10 µg/mL
- IC50 (µG/ml) viral plaque formation (HSV2; HSV2 333, VERO): 3 µg/mL
- IC50 (µG/ml) viral plaque formation (HSV2; HSV2 MS, VERO): 5 µg/mL
- IC50 (µG/ml) viral plaque formation (RSV [4]; RSV 2B, VERO, Pre): 0.1 µg/mL
- IC50 (µG/ml) viral plaque formation (RSV [4]; RSV 3A, VERO, Pre): 0.5 µg/mL
- IC50 (µG/ml) viral plaque formation (RSV [4]; RSV 9320, VERO, Pre): 0.2 µg/mL
- IC50µG/mL IN PLAQUE ASSAY RSV/ VERO (RSV [4]): 0.3 µg/mL
- IC50 (µG/ml) viral plaque formation (RSV [4]; RSV A2, HF, Post 2 hours): <3 µg/mL
- IC50 (µG/ml) viral plaque formation (RSV [4]; RSV A2, HF, Pre): 0.4 µg/mL
- IC50 (µG/ml) viral plaque formation (RSV [4]; RSV A2, MDBK, Pre): 0.4 µg/mL
- IC50 (µG/ml) viral plaque formation (RSV [4]; RSV A2, SKNSH, Pre): 0.4 µg/mL
- IC50 (µG/ml) viral plaque formation (RSV [4]; RSV A2, VERO, Post 2 hours): 0.3 µg/mL
- IC50 (µG/ml) viral plaque formation (RSV [4]; RSV A2, VERO, Post 24 hours): 0.4 µg/mL
- IC50 (µG/ml) viral plaque formation (RSV [4]; [19]): 0.3 µg/mL
- IC50 (µG/ml) viral plaque formation (RSV [4]; RSV LONG, VERO, Pre): 0.2 µg/mL
- active against all RSV strains tested (plaque assays) (RSV [4]): 0.1 to 0.7 µg/mL
- IC50 (µG/ml) viral plaque formation (HPIV3): 20 µg/mL
- viral protein synthesis (RSV [6]; 10 µg/ml added immediately after virus adsorption and before raising the incubation temperature to 37°C): fully prevented
- viral protein production (RSV [6]; added after only 5 minutes incubation at 37°C): unimpeded
